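A five-concentration, 48-hour dose response in 96-well plates underlies each endpoint, interpolated linearly between surrounding concentrations. The concentration for 50% growth inhibition is given as GI50.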 Activity calls are given as the source filed them. No stated cut-off is given here; in the data, active = GI50 up to about 1.1 µM and inactive = higher.

Test systems include 786-0; A498; A549; COLO 205; DU-145; HOP-92; HT-29; MDA-MB-435; MDA-N; Malme-3M; NCI-H522; NCI/ADR-RES; SF-539; SK-MEL-28; SK-MEL-5; SK-OV-3; SW-620; TK-10; UO-31; Hs-578T.
Assay in all cases: NCI tumour cell line growth inhibition, 48 h

As for `O=C(N(C1=CCCC1)N(c1ccccc1)c1ccccc1)C(F)(F)F`, the GI50 in the assay with 786-0 is 27.7 µM (inactive); with A498 it was 51.8 µM (inactive); in the assay on A549, 26.4 µM (inactive); in the assay on COLO 205, 18.6 µM (inactive); in the assay with DU-145, 30.8 µM (inactive); in the assay on HOP-92, 10.5 µM (inactive). Moreover, the GI50 with HT-29 was 17.3 µM (inactive); in the assay on MDA-MB-435 it was 21.1 µM (inactive); with MDA-N, 23.9 µM (inactive); in the assay on Malme-3M, 3.76 µM (inactive); in the assay on NCI-H522 it was 10.4 µM (inactive); with NCI/ADR-RES, 28.8 µM (inactive). The GI50 in the assay with SF-539 was 20.2 µM (inactive); in the assay on SK-MEL-28, 28.4 µM (inactive); in the assay on SK-MEL-5 it was 16.3 µM (inactive); with SK-OV-3 it was 40.1 µM (inactive); in the assay on SW-620, 20.2 µM (inactive); with TK-10, 39.9 µM (inactive). For the same compound, the GI50 with UO-31 is 31.6 µM (inactive).

Turning to `COc1ccc(Nc2c[nH]c(=O)[nH]c2=O)cc1`, the GI50 in the assay on 786-0, with A498, in the assay on A549, with COLO 205, with DU-145 and in the assay with HOP-92 was > 100 µM (inactive) in each case. Moreover, the GI50 in the assay with HT-29, in the assay on MDA-MB-435, with MDA-N, with Malme-3M, in the assay on NCI-H522 and in the assay on NCI/ADR-RES was > 100 µM (inactive) throughout. For the same compound, the GI50 in the assay with SF-539, in the assay on SK-MEL-28, in the assay with SK-MEL-5, in the assay with SK-OV-3, in the assay on SW-620 and in the assay on TK-10 was > 100 µM (inactive) each time. Also, the GI50 in the assay on UO-31 was > 100 µM (inactive).

Regarding `C=C(Br)C(Cl)(CBr)CCC(Br)C(C)(C)Cl` (stereo unspecified), the GI50 with 786-0 is 5.36 µM (inactive); with A498, > 10 µM (inactive); in the assay on A549 it was > 10 µM (inactive); with COLO 205 it was > 10 µM (inactive); in the assay on DU-145, > 10 µM (inactive); in the assay with HOP-92 it was > 10 µM (inactive). For the same compound, the GI50 with HT-29, in the assay with MDA-MB-435, with MDA-N, in the assay with NCI-H522, in the assay on NCI/ADR-RES and with SF-539 was > 10 µM (inactive) each time. Besides, the GI50 in the assay on SK-MEL-28, with SK-MEL-5, in the assay with SK-OV-3, in the assay on SW-620, in the assay on TK-10 and in the assay with UO-31 was > 10 µM (inactive) throughout.

As to `O=C1C=Cc2c(Cl)sc(Cl)c21`, the GI50 was 0.94 µM (active) in the assay on 786-0; 4.06 µM (inactive) in the assay with A498; 4.24 µM (inactive) in the assay on A549; 1.45 µM (inactive) with COLO 205; 2.32 µM (inactive) in the assay with DU-145; 1.5 µM (inactive) in the assay with HOP-92. For the same compound, the GI50 with HT-29 was 1.46 µM (inactive); in the assay on MDA-MB-435, 2.02 µM (inactive); with MDA-N, 2.53 µM (inactive); in the assay on NCI/ADR-RES, 2.03 µM (inactive); in the assay with SF-539, 1.48 µM (inactive); in the assay on SK-MEL-28 it was 1.73 µM (inactive). Further, the GI50 was 2.11 µM (inactive) with SK-MEL-5; 15.2 µM (inactive) in the assay on SK-OV-3; 0.845 µM (active) in the assay on SW-620; 2.24 µM (inactive) with TK-10; 1.6 µM (inactive) in the assay with UO-31.

For `Cc1cc(S(=O)(=O)Nc2nc3ccccc3c(=O)n2N)c(S)cc1Cl`, the GI50 was 21.3 µM (inactive) in the assay with 786-0; 31.1 µM (inactive) with A549; > 100 µM (inactive) in the assay with COLO 205; 43 µM (inactive) in the assay on DU-145; 53 µM (inactive) in the assay with HT-29; 32.7 µM (inactive) with MDA-MB-435. For the same compound, the GI50 with MDA-N was 38.1 µM (inactive); with Malme-3M, 23.1 µM (inactive); in the assay with NCI/ADR-RES, 24.5 µM (inactive); in the assay on SF-539, 27.6 µM (inactive); in the assay on SK-MEL-28 it was 67.9 µM (inactive); in the assay on SK-MEL-5, 29.6 µM (inactive). The results for the GI50 in the assay on SK-OV-3, with SW-620 and with TK-10 were 32.3 µM (inactive), 59.8 µM (inactive) and 48.1 µM (inactive), respectively.

`CC1(C)CC(=O)c2c(nc(SSc3nc4c(c(-c5ccccc5)c3C#N)C(=O)CC(C)(C)C4)c(C#N)c2-c2ccccc2)C1`: the GI50 in the assay on 786-0, in the assay on A498, in the assay on A549, in the assay with COLO 205, with DU-145 and with HOP-92 was > 10 µM (inactive) in each case. Also, the GI50 in the assay on HT-29, in the assay with Hs-578T, in the assay with Malme-3M, with NCI-H522, in the assay on NCI/ADR-RES and in the assay on SF-539 was > 10 µM (inactive) each time. Further, the GI50 in the assay on SK-MEL-28, in the assay on SK-MEL-5, with SK-OV-3, with SW-620, with TK-10 and with UO-31 was > 10 µM (inactive) throughout.

On to `O=C1c2ccccc2C2=Nc3ccncc3CN12`, for which the GI50 in the assay with 786-0, with A549, in the assay on COLO 205, in the assay on DU-145, with HOP-92 and with HT-29 was > 100 µM (inactive) in each case. The GI50 in the assay on MDA-N, with Malme-3M, in the assay with NCI-H522, with NCI/ADR-RES, in the assay on SF-539 and in the assay on SK-MEL-28 was > 100 µM (inactive) throughout. The GI50 in the assay with SK-MEL-5, in the assay with SK-OV-3, in the assay with SW-620, in the assay with TK-10 and in the assay on UO-31 was > 100 µM (inactive) throughout.

As to `COc1ccc2c(c1)CC1=C(O2)c2ccc(OC)cc2OC1`, the GI50 in the assay on 786-0 was 21.3 µM (inactive); in the assay on A498, > 100 µM (inactive); with A549 it was 74.6 µM (inactive); in the assay on COLO 205 it was 18.3 µM (inactive); in the assay with DU-145, 44.1 µM (inactive); with HT-29 it was 20.7 µM (inactive). The GI50 in the assay with MDA-MB-435 was 17.5 µM (inactive); in the assay on MDA-N it was 17.5 µM (inactive); in the assay with Malme-3M, 22.5 µM (inactive); with NCI-H522, 17 µM (inactive); in the assay with NCI/ADR-RES it was 34 µM (inactive); in the assay on SF-539, 35.9 µM (inactive). The GI50 in the assay on SK-MEL-5 was 18.2 µM (inactive); in the assay on SK-OV-3, 90.4 µM (inactive); in the assay with SW-620, 16.6 µM (inactive); with TK-10 it was 22.6 µM (inactive); in the assay on UO-31, 61.2 µM (inactive).

Take `O=C(CCCN1CC=C(n2c(=O)[nH]c3ccccc32)CC1)c1cccs1`: the GI50 with 786-0, in the assay with A498, with A549, in the assay with COLO 205, in the assay on DU-145 and in the assay on HOP-92 was > 100 µM (inactive) throughout. Also, the GI50 in the assay on HT-29 was 52.4 µM (inactive); in the assay on MDA-MB-435, > 100 µM (inactive); in the assay with MDA-N it was > 100 µM (inactive); in the assay with Malme-3M, > 100 µM (inactive); in the assay on NCI-H522 it was > 100 µM (inactive); in the assay with NCI/ADR-RES, > 100 µM (inactive). Besides, the GI50 was > 100 µM (inactive) with SF-539; > 100 µM (inactive) in the assay on SK-MEL-28; > 100 µM (inactive) with SK-MEL-5; > 100 µM (inactive) with SK-OV-3; > 100 µM (inactive) in the assay with SW-620; 67.5 µM (inactive) in the assay on TK-10. The GI50 in the assay on UO-31 was > 100 µM (inactive).

For the compound `Cc1ccccc1Nc1nc2ccccc2nc1NS(=O)(=O)c1ccccc1`, the GI50 with 786-0 was > 100 µM (inactive); with A549, > 100 µM (inactive); in the assay on COLO 205, > 100 µM (inactive); in the assay on HOP-92 it was 47.5 µM (inactive); with HT-29, > 100 µM (inactive); with Hs-578T, > 100 µM (inactive). In addition, the GI50 in the assay on MDA-MB-435 is > 100 µM (inactive); in the assay with Malme-3M, > 100 µM (inactive); in the assay on NCI-H522, > 100 µM (inactive); in the assay on NCI/ADR-RES it was > 100 µM (inactive); in the assay on SF-539 it was 59.7 µM (inactive); with SK-MEL-28 it was > 100 µM (inactive). Besides, the GI50 in the assay on SK-MEL-5, in the assay on SK-OV-3, with SW-620, in the assay with TK-10 and in the assay on UO-31 was > 100 µM (inactive) throughout.

As for `COC(=O)n1c(C)c(C=O)c2ccc(OC)cc21`, the GI50 in the assay on 786-0 is 36 µM (inactive); in the assay on A549, 43.7 µM (inactive); in the assay on COLO 205 it was 46.9 µM (inactive); with DU-145 it was 41.1 µM (inactive); with HT-29 it was 33.3 µM (inactive); with MDA-MB-435, 21.1 µM (inactive). Moreover, the GI50 with MDA-N is > 10 µM (inactive); with Malme-3M, 99.8 µM (inactive); with NCI-H522, 38.5 µM (inactive); with NCI/ADR-RES it was 49.4 µM (inactive); with SF-539 it was 21.9 µM (inactive); in the assay with SK-MEL-5, 21.6 µM (inactive). The GI50 with SK-OV-3 is 33.8 µM (inactive); in the assay with TK-10, 22.8 µM (inactive); in the assay with UO-31, 34.4 µM (inactive).

(Values after ChEMBL document CHEMBL1201862, “PubChem BioAssay data set” (2004).)
